Test results as given in patent US20110269699A1, “CANCER THERAPY” (priority 2008, published 2011).

Legend:
Type in all cases: cell-based, mouse
Eμ-myc lymphomas = assay: In vitro cell death analysis (propidium iodide staining, loss of MOMP)
Method: (§1) Three different primary Eμ-myc lymphomas overexpressing Bcl-2 and control vector-transduced Eμ-myc cells were tested for sensitivity to the histone deacetylase inhibitors (HDACi) oxamflatin and romidepsin.
(§2) The primary function of prosurvival Bcl-2 proteins is to inhibit the activity of Bak and Bax proteins and thereby protect the mitochondrial membrane from damage (Cory et al., Nat. Rev. Cancer 2:647-656, 2002). To determine if the induction of apoptosis mediated by romidepsin in 4242Eμ-myc/Bcl-2 and 229Eμ-myc/Bcl-2 lymphomas was via perturbation of the mitochondrial membrane or through some other mechanism, HDACi-induced mitochondrial outer membrane permeabilization (MOMP) was quantitated by staining with tetramethylrhodamine ethyl ester (Molecular Probes).
(§3) […] Viability of cells as measured by trypan blue exclusion assay, propidium iodide uptake, Annexin V staining, cell cycle analysis, or tetramethylrhodamine ethyl ester staining were done as described (Lindemann et al., Proc. Nat. Acad. Sci. USA 104:8071-8078, 2007).

Eμ-myc/Bcl-2 lymphomas = assay: as above
Method: as §1, §2, §3

[1] = system: 226Eμ-myc/Bcl-2 lymphomas; assay: Cell cycle analysis of Eμ-myc/Bcl-2 cells treated with HDACi; conditions: 226/Bcl-2
Method: (§4) Next, the cell cycle profiles of Eμ-myc/Bcl-2 lymphomas treated with oxamflatin and romidepsin over 3 days were assessed.
as §3

[2] = system: 4242Eμ-myc/Bcl-2 lymphomas; assay: as above; conditions: 4242/Bcl-2
Method: as §4, §3

[3] = system: 4242Eμ-myc/Bcl-XL lymphomas; assay: In vitro cell death analysis of Bcl-XL overexpressing lymphomas
Source text: (§5) To determine if increased expression of Bcl-XL could confer resistance to romidepsin, 4242Eμ-myc/Bcl-XL lymphomas were produced and tested for sensitivity to HDACi.
as §3

[4] = system: acetylated histones H3 and H4; assay: Western blot analysis of histone acetylation status; conditions: 4242Eμ-myc lymphomas; 3.0 nmol/L romidepsin, 0.1 mmol/L oxamflatin; 24-h time course
Method: Eμ-myc lymphoma cells were lysed in lysis buffer [0.15 mol/L NaCl, 10 mmol/L Tris-HCl (pH 7.4), 5 μmol/L EDTA, 1% Triton X-100] supplemented with protease inhibitors (leupeptin, pepstatin, and phenylmethylsulfonyl fluoride; Sigma-Aldrich) as described previously (Lindemann et al., Proc. Nat. Acad. Sci. USA 104:8071-8078, 2007). Proteins (30-50 μg) were separated on 10% or 15% SDS polyacrylamide gels electroblotted onto Immobilon-P […] membranes (Millipore). Membranes were incubated with the following antibodies: anti-mouse Bcl-2 (BD PharMingen), anti-mouse Bcl-XL (BD PharMingen), anti-mouse Bcl-w (Chemicon Australia), anti-mouse Mcl-1 (Rockland), anti-mouse A1 (Sapphire Biosciences), anti-Flag tag (Sigma-Aldrich), anti-acetylated histone H3 and antiacetylated histone H4 (Upstate Biosystems), anti-β actin (Sigma-Aldrich), and anti-tubulin (Sigma-Aldrich) overnight at 4° C. followed by subsequent incubation with horseradish peroxidase-conjugated secondary antibodies (DAKO) Immunoreactive bands were visualized by enhanced chemiluminescence (Amersham).

4242Eμ-myc lymphomas = assay: In vitro cell death analysis (parental control of the Bcl-XL experiment)
Method: as §5
Eμ-myc lymphoma cells (5×10^5/mL) were incubated in the presence of the indicated compounds for 20 h in 1 mL cell culture medium in 24-well plates (Greiner Bio-One). Viability of cells as measured by trypan blue exclusion assay, propidium iodide uptake, Annexin V staining, cell cycle analysis, or tetramethylrhodamine ethyl ester staining were done as described (Lindemann et al., Proc. Nat. Acad. Sci. USA 104:8071-8078, 2007).

[5] = increasing concentrations over 24 h

Q: Which “cell killing (outer cell membrane damage, loss of mitochondrial membrane potential)” value (Eμ-myc lymphomas; 24-h dose-response assay) does the source give for Oxamflatin here?
A: Its value is “could effectively kill”.

Q: And the “concentration of HDACi required to kill ˜70% of Eμ-myc lymphomas following 24-h treatment” value (Eμ-myc lymphomas; 24-h treatment)?
A: The value was 0.1 µmol/L.

Q: What about the “cell killing in time course” value (Eμ-myc/Bcl-2 lymphomas; 0.1 μmol/L, 72 h of continuous exposure) of the same substance?
A: Its value is “conferred resistance to oxamflatin”.

Q: What about the “cell killing (outer cell membrane damage, loss of mitochondrial membrane potential)” value (Eμ-myc/Bcl-2 lymphomas; 24-h dose-response assay, Bcl-2 overexpressing) of the same substance?
A: The value was “but not Eμ-myc/Bcl-2 lymphomas”.

Q: And the “% G1” value ([1]; 24 hr)?
A: Its value is 50.0%.

Q: What about the “% G2/M” value ([1]; 24 hr) of the same substance?
A: The value was 28.8%.

Q: And the “% S phase” value ([1]; 24 hr)?
A: Its value is 14.4%.

Q: What about the “% subG1” value ([1]; 24 hr) of the same substance?
A: Its value is 2.7%.

Q: What about the “% G1” value ([1]; 48 hr) of the same substance?
A: Its value is 62.6%.

Q: What about the “% G2/M” value ([1]; 48 hr) of the same substance?
A: Its value is 21.4%.

Q: What about the “% S phase” value ([1]; 48 hr) of the same substance?
A: Its value is 10.8%.

Q: And the “% subG1” value ([1]; 48 hr)?
A: Its value is 2.6%.

Q: What about the “% G1” value ([1]; 72 hr) of the same substance?
A: The value was 78.2%.

Q: What about the “% G2/M” value ([1]; 72 hr) of the same substance?
A: The value was 12.0%.

Q: What about the “% S phase” value ([1]; 72 hr) of the same substance?
A: The value was 2.5%.

Q: What about the “% subG1” value ([1]; 72 hr) of the same substance?
A: The value was 6.5%.

Q: And the “% G1” value ([2]; 24 hr)?
A: Its value is 59.4%.

Q: And the “% G2/M” value ([2]; 24 hr)?
A: The value was 18.0%.

Q: What about the “% S phase” value ([2]; 24 hr) of the same substance?
A: The value was 8.2%.

Q: And the “% subG1” value ([2]; 24 hr)?
A: The value was 8.4%.

Q: What about the “% G1” value ([2]; 48 hr) of the same substance?
A: Its value is 62.3%.

Q: And the “% G2/M” value ([2]; 48 hr)?
A: Its value is 15.3%.

Q: What about the “% S phase” value ([2]; 48 hr) of the same substance?
A: Its value is 8.4%.

Q: What about the “% subG1” value ([2]; 48 hr) of the same substance?
A: The value was 5.9%.

Q: What about the “% G1” value ([2]; 72 hr) of the same substance?
A: The value was 66.7%.

Q: What about the “% G2/M” value ([2]; 72 hr) of the same substance?
A: The value was 15.8%.

Q: What about the “% S phase” value ([2]; 72 hr) of the same substance?
A: The value was 9.7%.

Q: What about the “% subG1” value ([2]; 72 hr) of the same substance?
A: Its value is 4.6%.

Q: And the “plasma membrane integrity and mitochondrial function” value [3, 5]?
A: Its value is “unaffected”.

Q: And the cell cycle analysis ([3]; increasing doses)?
A: The cell cycle analysis was “arrested in the G1 phase”.

Q: What about the “acetylation of histones H3 and H4” value [4] of the same substance?
A: The value was “induced equivalent acetylation of histones H3 and H4”.

Q: What about the “plasma membrane integrity and mitochondrial function” value (4242Eμ-myc lymphomas; [5]) of the same substance?
A: Its value is “dose-dependent loss of plasma membrane integrity and mitochondrial function”.

Q: What about the “cell cycle analysis: DNA fragmentation” value (4242Eμ-myc lymphomas; increasing doses) of the same substance?
A: Its value is “DNA fragmentation occurred”.

Q: What about the “cell killing in time course” value (4242Eμ-myc lymphomas; parental Eμ-myc lymphomas, within the first 24 h, 3 nmol/L romidepsin or 0.1 μmol/L oxamflatin) of the same substance?
A: The value was “effectively killed”.
